Where only a bound is given, the exact number is not on record here.

The subject of one series is genotype 1b HCV replicon in Huh-7 cells. The experiment in a line: HCV replicon luciferase assay, genotype 1b. The note with it: Hepatitis C virus, 72 h, Huh-7, Renilla luciferase, 3 days, read-out: EC50 1b (class). The series is classed as cell-based. As to the method: Cell lines. The cell lines used to evaluate compounds consist of a human hepatocyte derived cell line (Huh-7) that constitutively expresses a genotype 1a or 1b HCV replicon containing a Renilla luciferase reporter gene. These cells were maintained in Dulbecco's modified Eagle medium (DMEM) containing 10% FBS, 100 U/mL penicillin/streptomycin and 1.0 mg/mL G418.
HCV Replicon Luciferase Assay.
To evaluate compound efficacy, HCV replicon cells were seeded in 96-well plates in DMEM containing 10% FBS at a cell density of 10^4/well. Following incubation at 37° C. overnight, compounds serially diluted in DMSO were added to the cell plates. Alternatively, titrated compounds were transferred to sterile 384-well tissue-culture treated plates and the plates seeded with 50 μL of cells at a density of 2.4×10^3 cells/well in DMEM containing 4% FCS (final DMSO concentration at 0.5%). After 3 days incubation at 37° C., cells were analyzed for Renilla Luciferase activity using the EnduRen substrate (Promega cat #E6485) according to the manufacturer's directions. Briefly, the EnduRen substrate was diluted in DMEM and then added to the plates to a final concentration of 7.5 μM. The plates were incubated for at least 1 h at 37° C. then read on a TopCount NXT Microplate Scintillation and Luminescence Counter (Packard) or Viewlux Imager (PerkinElmer) using a luminescence program. The 50% effective concentration (EC50) was calculated using the exponential form of the median effect equation where EC50=100−[(δFinh/δFcon)×100].
(A replicon is a self-replicating genome or part of one, used to study replication in cells.)
For `CNC(=O)c1c(-c2ccc(F)cc2)oc2cc3c(cc12)-c1cc(C(=O)NC(C)(C)C)cc(c1)N(S(C)(=O)=O)CCCCN3S(C)(=O)=O` [Compound 1001], the 50% effective concentration (EC50) lay within 0.1 to 1 µM.

For the compound `CNC(=O)c1c(-c2ccc(F)cc2)oc2cc3c(cc12)-c1cc(C(=O)NC(C)(C)C)cc(c1)N(S(C)(=O)=O)CCCCCN3S(C)(=O)=O` [Compound 1002], the EC50 was 0.1 to 1 µM.

Regarding `CNC(=O)c1c(-c2ccc(F)cc2)oc2cc3c(cc12)-c1cc(C(=O)NC(C)(C)C)cc(c1)N(S(C)(=O)=O)CCCCCCN3S(C)(=O)=O` [Compound 1003], the 50% effective concentration (EC50) was in the range of 0.1 to 1 µM.

For the compound `CNC(=O)c1c(-c2ccc(F)cc2)oc2cc3c(cc12)-c1cc(C(=O)NC(C)(C)C)cc(c1)N(S(C)(=O)=O)CCCCCCCN3S(C)(=O)=O` [Compound 1004], the EC50 is under 0.1 µM.

As to `CNC(=O)c1c(-c2ccc(F)cc2)oc2cc3c(cc12)-c1cc(C(=O)NC(C)(C)C)cc(c1)N(S(C)(=O)=O)CCCCCCCCN3S(C)(=O)=O` [Compound 1005], the 50% effective concentration (EC50) lay in the range of 0.1 to 1 µM.

For `CNC(=O)c1c(-c2ccc(F)cc2)oc2cc3c(cc12)-c1cc(C(=O)NC(C)(C)C)cc(c1)N(S(C)(=O)=O)CCc1ccc(cc1)CCN3S(C)(=O)=O` [Compound 1006], the 50% effective concentration (EC50) is over 1 µM.

Consider `CNC(=O)c1c(-c2ccc(F)cc2)oc2cc3c(cc12)-c1cc(cc(C(=O)NC(C)(C)C)c1)NC(=O)CCCCC(=O)N3` [Compound 1051], for which the 50% effective concentration (EC50) is over 1 µM.

Take `CNC(=O)c1c(-c2ccc(F)cc2)oc2cc3c(cc12)-c1cc(cc(C(=O)NC(C)(C)C)c1)NC(=O)CCCCCCCCC(=O)N3` [Compound 1052]: the EC50 was in the range of 0.1 to 1 µM.

Consider `CNC(=O)c1c(-c2ccc(F)cc2)oc2cc3c(cc12)-c1cc(cc(C(=O)NC(C)(C)C)c1)NC(=O)CCCCCCCCCCC(=O)N3` [Compound 1053], for which the half-maximal effective concentration (EC50) fell in the range of 0.1 to 1 µM.

With `CNC(=O)c1c(-c2ccc(F)cc2)oc2cc3c(cc12)-c1cc(cc(C(=O)NC(C)(C)C)c1)NC(=O)OCCOC(=O)N3` [Compound 1054], the EC50 was over 1 µM.

On to `CNC(=O)c1c(-c2ccc(F)cc2)oc2cc3c(cc12)-c1cc(cc(C(=O)NC(C)(C)C)c1)NC(=O)OCCOCCOC(=O)N3` [Compound 1055], for which the half-maximal effective concentration (EC50) was over 1 µM.

As to `CNC(=O)c1c(-c2ccc(F)cc2)oc2cc3c(cc12)-c1cc(cc(C(=O)NC(C)(C)C)c1)NC(=O)OCCOCCOCCOC(=O)N3` [Compound 1056], the EC50 was over 1 µM.

As to `CNC(=O)c1c(-c2ccc(F)cc2)oc2cc3c(cc12)-c1cc(cc(C(=O)NC(C)(C)C)c1)NC(=S)NCCCCNC(=S)N3` [Compound 1057], the EC50 was over 1 µM.

With `CNC(=O)c1c(-c2ccc(F)cc2)oc2cc3c(cc12)-c1cc(cc(C(=O)NC(C)(C)C)c1)NC(=S)NCCCCCCCCNC(=S)N3` [Compound 1058], the half-maximal effective concentration (EC50) was over 1 µM.

Still in this series, the particulars now being: Hepatitis C virus, 72 h, Huh-7, Renilla luciferase, 3 days, read-out: EC50 (uM) 1b.
As for `CNC(=O)c1c(-c2ccc(F)cc2)oc2cc3c(cc12)-c1cc(C(=O)NC(C)(C)C)cc(c1)N(S(C)(=O)=O)CCCCN3S(C)(=O)=O` [Compound 1001], the EC50 amounted to 0.171 µM.

With `CNC(=O)c1c(-c2ccc(F)cc2)oc2cc3c(cc12)-c1cc(C(=O)NC(C)(C)C)cc(c1)N(S(C)(=O)=O)CCCCCCCN3S(C)(=O)=O` [Compound 1004], the 50% effective concentration (EC50) amounted to 0.0477 µM.

In the case of `CNC(=O)c1c(-c2ccc(F)cc2)oc2cc3c(cc12)-c1cc(C(=O)NC(C)(C)C)cc(c1)N(S(C)(=O)=O)CCc1ccc(cc1)CCN3S(C)(=O)=O` [Compound 1006], the EC50 amounted to 1.21 µM.

For the compound `CNC(=O)c1c(-c2ccc(F)cc2)oc2cc3c(cc12)-c1cc(cc(C(=O)NC(C)(C)C)c1)NC(=O)CCCCCCCCC(=O)N3` [Compound 1052], the 50% effective concentration (EC50) was found to be 0.789 µM.

In the case of `CNC(=O)c1c(-c2ccc(F)cc2)oc2cc3c(cc12)-c1cc(cc(C(=O)NC(C)(C)C)c1)NC(=O)OCCOCCOCCOC(=O)N3` [Compound 1056], the EC50 worked out at 8.34 µM.

The next series concerns HCV RNA levels.
Test: not given
The note with it: extended dosing of the combination regimens; cited from earlier work.
`CNC(=O)c1c(-c2ccc(F)cc2)oc2cc(N(CCO)S(C)(=O)=O)c(C3CC3)cc12` [HCV-796]: the hepatic toxicity entry is listed as “hepatic toxicity observed”.

The same series, now with this note: patients; single agent or combined with interferon and ribavirin; cited from earlier work.
Consider `CNC(=O)c1c(-c2ccc(F)cc2)oc2cc(N(CCO)S(C)(=O)=O)c(C3CC3)cc12` [HCV-796], for which the “HCV RNA levels in patients” value is given as “reduce HCV RNA levels”.

For the next series, the system named is HCV.
Test: not given
To be noted: combination therapy; cited from earlier work.
In the case of alpha-interferon and ribavirin, the sustained efficacy is listed as 40 % of patients.

The EC50 is the concentration giving half of the maximal effect.

(Values after US9434738B2, “Macrocyclic benzofuran and azabenzofuran compounds for the treatment of hepatitis C” (BRISTOL-MYERS SQUIBB COMPANY, priority 2013, dated 2016).)
